The values below come from patent US11161871B2, “Crystalline form of obeticholic acid and preparation method therefor” (Jiangsu Hengrui Medicine Co., Ltd., priority 2016, dated 2021).

Series [1] can be described thus: Stability of crystal form E spread flat in the air under lighting, heating and high humidity, purity by HPLC. The class given is physicochemical. Particulars: for Purity detected by HPLC, 40° C.: heating 40° C.; for Purity detected by HPLC, 60° C.: heating 60° C.; for Purity detected by HPLC, RH 75%: high humidity RH 75%; for Purity detected by HPLC, RH 90%: high humidity RH 90%; for Purity detected by HPLC, Lighting: lighting 4500 Lux. The method, then:
Samplings were carried out on Day 5 and Day 10.

Series [2] can be described thus: Stability under placement condition (30° C., RH 65%), HPLC purity and X-ray powder diffraction. Format: physicochemical. Particulars: for Crystal form (X-ray powder diffraction) / Purity determined by HPLC: 30° C. The method, then:
Samplings were carried out on Day 5, Day 10, and Day 30.

A short description of series [3]: Special stability study: grinding, heating, tableting (crystal form, DSC). The class given is physicochemical.
The conditions of series [4]: placebo-controlled phase III clinical trial; cited from earlier work.
Series [5] is described as follows: Drying at 80° C. of crystal product crystallized with butyl acetate. The class given is physicochemical. The conditions noted are these: crystal product from butyl acetate dried at 80° C.

On to `CC[C@H]1[C@@H](O)[C@@H]2[C@H](CC[C@]3(C)[C@@H]([C@H](C)CCC(=O)O)CC[C@@H]23)[C@@]2(C)CC[C@@H](O)C[C@@H]12` [Crystal form E, obeticholic acid], for which the “Purity detected by HPLC, 40° C.” value came to 99.7% in series [1] (day 0), 99.6% in series [1] (day 5) and 99.5% in series [1] (day 10). Moreover, the results for the “Purity detected by HPLC, 60° C.” value in series [1] (day 0), in series [1] (day 5) and in series [1] (day 10) were 99.7%, 99.4% and 99.1%, respectively. Moreover, the “Purity detected by HPLC, RH 75%” value in series [1] (day 0), in series [1] (day 5) and in series [1] (day 10) was 99.7% in each case. The “Purity detected by HPLC, RH 90%” value was determined as 99.7% in series [1] (day 0), 99.6% in series [1] (day 5) and 99.5% in series [1] (day 10). The “Purity detected by HPLC, Lighting” value in series [1] (day 0) amounted to 99.7%; in series [1] (day 5) it was 99.6%; in series [1] (day 10), 99.6%. Further, the “Stability (in words)” value is “stable” in series [1] (lighting, high temperature and high humidity (summary statement)); “slightly degraded” in series [1] (spread flat in the air, high temperature); “good stability” in series [1] (spread flat in the air, lighting/high humidity); “stable under the placement condition” in series [2] (placement condition 30° C., up to Day 30). Also, the “Crystal form (X-ray powder diffraction)” value in series [2] (Day 0), in series [2] (Day 5), in series [2] (Day 10) and in series [2] (Day 30) was “Crystal form E” throughout. Further, the “Purity determined by HPLC” value was found to be 99.75% in series [2] (Day 0), 99.72% in series [2] (Day 5), 99.73% in series [2] (Day 10) and 99.70% in series [2] (Day 30). Also, the DSC peak in series [3] (after grinding treatment for 10 minutes in a mortar under nitrogen) was 94.3 °C; in series [3] (after heating treatment for 3 hours at 80° C.), 94.5 °C; in series [3] (after tableting treatment), 94.6 °C. Also, the “Stability of the crystal form (in words)” value in series [3] (ground, heated or tableted (grinding, pressure and heating)) is given as “the crystal form was stable”.
`CC[C@H]1[C@@H](O)[C@@H]2[C@H](CC[C@]3(C)[C@@H]([C@H](C)CCC(=O)O)CC[C@@H]23)[C@@]2(C)CC[C@@H](O)C[C@@H]12` [obeticholic acid]: the “Biomarkers associated with reduced risk of liver transplantation” value in series [4] was “increases the level of two biomarkers associated with reduced risk of liver transplantation”. In series [5], the “Thermal stability on drying (colour change, degradation)” value is “unstable at 80 °C and has undergone degradation”.
